Structures are written as SMILES. Converted amounts (≈) assume the structure as drawn.

Series [1] in a line: Oxidative Stability Index (OSI) of refined meadowfoam seed oil plus additives. The text has this: A presently preferred method of determining oxidative stability of lipids and oils employs the Oxidative Stability Index (OSI), which determines the oxidative stability of an oil by passing air through a sample under stringent temperature control. (Firestone, Oxidative Stability Index (OSI): Official Methods of Recommended Practices of the American Oil Chemists' Society (AOCS), 4th Ed. American Oil Chemists Society, Champaign, Ill., AOCS Official Method Cd 12b-92, 1993.) In this method, a stream of air is passed through the oil sample, which aids in the rapid degradation of the triglyceride into volatile organic acids. The air stream flushes the volatile acids from the oil into a conductivity cell containing water where the acids are solubilized. These acids, once dissolved in the water solution, disassociate into ions, thus changing the conductivity of the water. Therefore, a continuous measure of the conductivity of the cell by computer will indicate when a rapid rise in the conductivity occurs that corresponds to the induction point, oxidative failure of the sample. The time to the induction point is the OSI time. […] Saturated fatty acid methyl ester (FAME) standards commercially available from Alltech Associates (Deerfield, Ill.) may be used to calibrate the OSI determinations.
OSI determinations may be performed on an oxidative stability instrument manufactured by Omnion (Rockland, Mass.) using the AOCS method described in the above-disclosed Firestone reference. Lipid or oil samples may be run at 110° C. and FAMEs may be tested at 90° C., with air flow set at 35 kPa with a resulting velocity of about 140 ml/min. A presently preferred method for determining OSI values is described by T. A. Isbell et al., “Oxidative Stability Index of Vegetable Oils in Binary Mixtures with Meadowfoam Oil,” Industrial Crops and Products 9, 115–123 (1999).
Unless otherwise stated, Oxidative Stability Index (OSI) values were determined on 5.00 ±0.05 g lipid or oil samples in triplicate according to AOCS Official Method Cd 12b-92 (AOCS, 1993) at 90° C., 110° C. and/or 130° C. on an oxidative stability instrument manufactured by Omnion (Rockland, Mass.). Details of the procedure have been published by Isbell et al., “Oxidative Stability Index of Vegetable Oils in Binary Mixtures with Meadowfoam Oil,” Ind. Crops Prod. 9, 115–123 (1999). When compounds of the present invention were added to the lipid or oil sample being tested, the compounds (0.1% to 1.0% by weight) were added to the test lipid or oil (20 g) and dissolved or dispersed at room temperature before triplicate 5.00 g samples of lipid or oil with an added compound of the invention were weighed into the OSI test tube.
The 1,3-di(3-methoxybenzyl) thiourea prepared in Example 3 was mixed at 0.1%, 0.5% or 1.0% with refined meadowfoam seed oil (Lot #CW-4551, The Fanning Corp) and the oxidative stability of the mixtures was compared to that of refined meadowfoam seed oil at 130° C. The OSI times were 49.8 h, 159 h and 172 h, respectively, for the mixtures containing the thiourea compared to an OSI time of 14.9 h for this lot of refined meadowfoam seed oil with no additives at 130° C.
Thus, 1,3-bis(2-methoxyphenyl)-2-thiourea (Aldrich Chem Co.) added at 0. […] Likewise, 1,3-bis(3-methoxyphenyl)-2-thiourea at 0. 1% added to refined meadowfoam oil gave an OSI time of 27.0 h, an […] lower value than for the 1,3-di-(3-methoxybenzyl) thiourea produced in Example 3.

Series [2] in a line: in vivo. The settings on record: Artemia salina (brine shrimp), in vivo, other: exposure in seawater in microplate wells. Here is the method:
Brine shrimp eggs (Artemia salina) were obtained from Brine Shrimp Direct, Ogden, Utah and stored at 10° C. until used. Eggs (400 mg) were added to 1 l of deionized water containing 40 g of sea salts (Sigma Chemical Co., St. Louis, Mo.).
Serial dilutions were performed in 100 μl of seawater in triplicate in the wells of a 96-well microplate to give appropriate concentrations. Control wells for both water and DMSO were included with each experiment. […] The number of non-motile, and the total number of, naupli were counted in each well using a binocular microscope (10×).

Series [3] is described as follows: UVB and UVA molar absorptivities in chloroform. To be noted: 0.01 mg/ml in chloroform. The series is classed as physicochemical. As to the method:
The compounds synthesized in Example 3 were tested to determine their ability to absorb […] UVA light. UV spectra of quantitatively weighed and diluted samples (0.01 mg/ml) in chloroform were scanned from 244–450 nm at 240 nm/min on a Beckman DU 640 spectrophotometer (Beckman Coulter, Inc., Fullerton, Calif.). Amax in the 280–320 nm range was determined and converted to molar absorptivity for the UVB region, and Amax in the 320–400 nm range was determined and converted to molar absorptivity for the UVA region.

Where [4] appears, read: refined meadowfoam oil, 0.1% additive, 130° C.
The mark [5] stands for this setting: refined meadowfoam oil, 0.1% additive, 130° C. (Example 8).
Where [6] appears, read: refined meadowfoam seed oil plus additive 0.1%, 130° C.
The mark [7] stands for this setting: refined meadowfoam seed oil plus additive 0.5%, 130° C.
[8] abbreviates: refined meadowfoam seed oil plus additive 1.0%, 130° C.

For `COc1ccccc1NC(=S)Nc1ccccc1OC` [1,3-bis(2-methoxyphenyl)-2-thiourea], in series [1] (setting [4]), the “OSI time lower than for 1,3-di-(3-methoxybenzyl) thiourea” value amounted to 34%. Also, the OSI Time in series [1] (setting [5]) was 37.1 h.
Consider `COc1cccc(NC(=S)Nc2cccc(OC)c2)c1` [1,3-bis(3-methoxyphenyl)-2-thiourea], for which the “OSI time lower than for 1,3-di-(3-methoxybenzyl) thiourea” value in series [1] (setting [4]) was determined as 84%. For the same compound, in series [1] (setting [5]), the OSI Time amounted to 27.0 h.
As for `COc1cccc(C=O)c1` [3-methoxybenzaldehyde], the “OSI Time” value in series [1] (setting [6]) was 17.5 h; in series [1] (setting [7]) it was 17.4 h; in series [1] (setting [8]) it was 18.9 h.
Consider `COc1cccc(CN)c1` [3-methoxybenzyl amine], for which the “OSI Time” value in series [1] (setting [6]) came out at 22.9 h; in series [1] (setting [7]), 27.3 h; in series [1] (setting [8]) it was 32.6 h.
With `COc1cccc(CN=C=S)c1` [3-methoxybenzyl isothiocyanate], the “OSI Time” value in series [1] (setting [6]) worked out at 19.1 h; in series [1] (setting [7]) it was 22.9 h; in series [1] (setting [8]), 24.0 h.
The like results for `COc1cccc(CC#N)c1` [3-methoxyphenyl acetonitrile] were, in that order, 18.6 h, 19.2 h and 19.9 h.
In the case of `O=C1O[C@H]([C@@H](O)CO)C(O)=C1O` [ascorbic acid, reference compound], the LC50 at 24 h in series [2] stood at 315 µg/mL (≈ 1790 µM).
Consider `O=C(O)/C=C/c1ccccc1` [trans-cinnamic acid, reference compound], for which the “UVBMAX Molar Absorptivity” value in series [3] (Amax in 280–320 nm) worked out at 22350. In series [3] (Amax in 320–400 nm), the “UVAMAX Molar Absorptivity” value was found to be 54.

The values are drawn from patent publication US7169815B2, “3-methoxybenzyl thiourea derivatives and improved lipid compositions containing same” (The United States of America as represented by the …, priority 2000, dated 2007).
